Laboratory results from ChEMBL document CHEMBL5150057, “Making Protein Degradation Visible: Discovery of Theranostic PROTACs for Detecting and Degrading NAMPT” (J Med Chem, 2022).
Blank lines part the entries; values can stand above or below the compound they belong to. Activity calls are given as the source filed them. The calls are words filed in the database; no cut-off is given here.

What was measured:
[1] = tested on: A2780; test: Cytotoxicity against human A2780 cells assessed as cell growth inhibition incubated for 72 hrs by CCK-8 assay; assay type: functional, cell-based; details: A2780, 72 h
[2] = molecular target: T1, Nicotinamide phosphoribosyltransferase (Homo sapiens, UniProt P43490); test: Induction of NAMPT degradation in human A2780 cells at 50 nM after 24 hrs by Western blot analysis; assay type: cell-based
Target sequence in this assay (P43490 whole entry, looked up): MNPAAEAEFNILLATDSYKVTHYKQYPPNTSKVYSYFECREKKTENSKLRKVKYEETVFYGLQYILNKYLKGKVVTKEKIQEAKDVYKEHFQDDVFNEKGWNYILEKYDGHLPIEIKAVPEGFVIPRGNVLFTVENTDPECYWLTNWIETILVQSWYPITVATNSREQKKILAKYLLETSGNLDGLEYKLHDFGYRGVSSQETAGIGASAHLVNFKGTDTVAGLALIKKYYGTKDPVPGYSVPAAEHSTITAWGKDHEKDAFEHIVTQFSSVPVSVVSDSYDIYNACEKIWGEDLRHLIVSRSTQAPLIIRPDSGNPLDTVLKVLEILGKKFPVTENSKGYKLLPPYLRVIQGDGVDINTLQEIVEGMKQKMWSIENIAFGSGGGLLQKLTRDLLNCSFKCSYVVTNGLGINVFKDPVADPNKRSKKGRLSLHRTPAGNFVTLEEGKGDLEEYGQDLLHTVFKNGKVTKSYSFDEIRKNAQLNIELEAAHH

[3] = molecular target: T1, Nicotinamide phosphoribosyltransferase; test: Induction of NAMPT degradation in human A2780 cells at 30 nM after 24 hrs by Western blot analysis; assay type: cell-based
Target sequence in this assay (P43490 whole entry, looked up): as above

[4] = molecular target: T1, Nicotinamide phosphoribosyltransferase; test: Induction of NAMPT degradation in human A2780 cells at 100 nM after 24 hrs by Western blot analysis; assay type: cell-based
Target sequence in this assay (P43490 whole entry, looked up): as above

[5] = tested on: Mus musculus; test: In vivo induction of NAMPT degradation in human A2780 cells xenografted in BALB/c mouse at 10 to 30 mg/kg, ip administered once daily for 14 days by immunofluorescence analysis; assay type: functional, organism-based; details: dose 10-30 mg/kg, time 14.0 day
[6] = tested on: HUVEC; test: Cytotoxicity against HUVEC assessed as cell growth inhibition incubated for 72 hrs by CCK-8 assay; assay type: toxicity, cell-based; details: human
[7] = Drug uptake in human A2780 cells at 500 nM within 1 to 6 hrs by immunostaining based assay; assay type: ADME, cell-based; details: a2780, 0.5 µM, time 1-6 hrs
[8] = Photostability of compound in PBS at pH 7.4; assay type: physicochemical; details: buffer
[9] = Tmax in Sprague-Dawley rat at 30 mg/kg, ip measured upto 24 hrs by LC-MS/MS analysis; assay type: ADME, organism-based; details: in vivo
[10] = molecular target: T1, Nicotinamide phosphoribosyltransferase; test: Induction of NAMPT degradation in human A2780 cells at 30 nM; assay type: cell-based; details: time 1-24 hrs, TDE = time-dependent effect
Target sequence in this assay (P43490 whole entry, looked up): as above

[11] = Cmax in Sprague-Dawley rat at 30 mg/kg, ip measured upto 24 hrs by LC-MS/MS analysis; assay type: ADME, organism-based; set-up: dose 30 mg/kg, time < 24 hrs, route ip; details: in vivo
[12] = MRT (0 to infinity) in Sprague-Dawley rat at 30 mg/kg, ip measured upto 24 hrs by LC-MS/MS analysis; assay type: ADME, organism-based; details: in vivo
[13] = molecular target: T1, Nicotinamide phosphoribosyltransferase; test: Induction of NAMPT degradation in human A2780 cells at greater than 50 nM after 24 hrs by Western blot analysis; assay type: cell-based
Target sequence in this assay (P43490 whole entry, looked up): as above

[14] = Half life in Sprague-Dawley rat at 30 mg/kg, ip measured upto 24 hrs by LC-MS/MS analysis; assay type: ADME, organism-based; details: in vivo
[15] = molecular target: T1, Nicotinamide phosphoribosyltransferase; test: Induction of NAMPT degradation in human A2780 cells assessed as downregulation of NAD+ levels at 4.1 nM incubated for 24 hrs […]; assay type: cell-based
Target sequence in this assay (P43490 whole entry, looked up): as above

[16] = molecular target: T1, Nicotinamide phosphoribosyltransferase; test: Induction of NAMPT degradation in human A2780 cells at 30 nM after 1 hr; assay type: cell-based
[17] = Toxicity in BALB/c nude mouse xenografted with human A2780 cells at 10 to 30 mg/kg, ip administered once daily for 14 days by caliper method; assay type: organism-based; details: in vivo, 336 h, dose 10-30 mg/kg, time 14 day
[18] = tested on: A2780; test: Cytotoxicity against human A2780 cells assessed as cell growth inhibition incubated for 72 hrs in presence of (2S,4R)-1-(2-amino-3,3-dimethyl-butanoyl)-4-hydroxy-N-[(1S)-1-[4-(4-methylthiazol-5-yl)phenyl]ethyl]pyrrolidine-2-carboxamide by CCK-8 assay; assay type: functional, cell-based; details: A2780, 72 h
[19] = molecular target: T1, Nicotinamide phosphoribosyltransferase; test: Induction of NAMPT degradation in human A2780 cells after 24 hrs by Western blot analysis; assay type: cell-based
[20] = tested on: A2780; test: Antitumor activity against human A2780 cells xenografted in ip dosed BALB/c nude mouse administered once daily for 14 days by caliper method; assay type: functional, organism-based; details: dose 10-30 mg/kg, time 14.0 day, DDE = dose-dependent effect
[21] = AUC (0 to infinity) in Sprague-Dawley rat at 30 mg/kg, ip measured upto 24 hrs by LC-MS/MS analysis; assay type: ADME, organism-based; set-up: time < 24 hrs, dose 30 mg/kg, route ip; details: in vivo
[22] = molecular target: T1, Nicotinamide phosphoribosyltransferase; test: Induction of NAMPT degradation in human A2780 cells at 30 nM after 24 hrs; assay type: cell-based
[23] = molecular target: T1, Nicotinamide phosphoribosyltransferase; test: Inhibition of NAMPT catalytic domain (unknown origin) using NAM as substrate preincubated for 5 mins followed by substrate addition
Target sequence in this assay (P43490 whole entry): as the sequence (P43490 whole entry, looked up) above

[24] = molecular target: T1, Nicotinamide phosphoribosyltransferase; test: Binding affinity to NAMPT in human A2780 cells by flow cytometry analysis; assay type: cell-based; details: time 0.5-24 hrs
[25] = tested on: A2780; test: Antitumor activity against human A2780 cells xenografted in BALB/c nude mouse assessed as tumor growth inhibition at 30 mg/kg, ip administered once daily for 14 days by caliper method; assay type: functional; details: A2780, 336 h, time 14 day, read-out: TGI
[26] = molecular target: T1, Nicotinamide phosphoribosyltransferase; test: Binding affinity to NAMPT in human A2780 cells assessed as change in melting temperature at 10 uM after 2 hrs by CESTA; assay type: cell-based
[27] = Drug uptake in human A2780 cells at 1 uM after 30 mins by immunostaining based assay; assay type: ADME, cell-based; details: a2780, 0.5 h
[28] = molecular target: T1, Nicotinamide phosphoribosyltransferase; test: Induction of NAMPT degradation in human A2780 cells at 30 nM incubated for 24 hrs in presence of MG132; assay type: cell-based
[29] = molecular target: von Hippel-Lindau disease tumor suppressor (Homo sapiens) (UniProt P40337); test: Binding affinity to VHL in human A2780 cells assessed as change in melting temperature at 10 uM after 2 hrs by CESTA; assay type: cell-based
von Hippel-Lindau disease tumor suppressor (Homo sapiens), sequence (P40337 whole entry, looked up): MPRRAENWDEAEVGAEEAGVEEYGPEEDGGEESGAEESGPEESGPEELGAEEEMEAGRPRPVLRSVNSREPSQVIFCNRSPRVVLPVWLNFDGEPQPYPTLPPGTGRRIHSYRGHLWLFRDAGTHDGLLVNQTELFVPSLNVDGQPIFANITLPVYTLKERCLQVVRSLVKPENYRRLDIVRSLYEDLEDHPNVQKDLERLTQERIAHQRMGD

[30] = tested on: A2780; test: Antitumor activity against human A2780 cells xenografted in BALB/c nude mouse assessed as tumor growth inhibition at 10 mg/kg, ip administered once daily for 14 days by caliper method; assay type: functional; details: A2780, 336 h, time 14 day, read-out: TGI
[31] = Toxicity in BALB/c nude mouse xenografted with human A2780 cells at 30 mg/kg, ip administered once daily for 14 days by caliper method; assay type: organism-based; details: in vivo, 336 h, time 14 day
[32] = Drug uptake in human A2780 cells at 500 nM within 1 to 6 hrs by confocal imaging analysis; assay type: ADME, cell-based; details: a2780, 0.5 µM, time 1-6 hrs
[33] = Drug uptake in human A2780 cells at 500 nM after 6 hrs by confocal imaging analysis; assay type: ADME, cell-based; details: a2780, 6 h, 0.5 µM

Structure (SMILES): CCCn1c(=O)c(-c2ccc(C(=O)NCc3cccnc3)cc2)nc2ccc(NC(=O)CCCCC(=O)N[C@H](C(=O)N3C[C@H](O)C[C@H]3C(=O)N[C@@H](C)c3ccc(-c4scnc4C)cc3)C(C)(C)C)cc21
IC50 [1]: 88 nM

Structure (SMILES): CCCn1c(=O)c(-c2ccc(C(=O)NCc3cccnc3)cc2)nc2ccc(NC(=O)CCCCCCC(=O)N[C@H](C(=O)N3C[C@H](O)C[C@H]3C(=O)N[C@@H](C)c3ccc(-c4scnc4C)cc3)C(C)(C)C)cc21
Activity [4]: Active
IC50 [1]: 20.8 nM
Activity [3]: Active

Structure (SMILES): CCCn1c(=O)c(-c2ccc(C(=O)NCc3cccnc3)cc2)nc2ccccc21
Activity [6]: Non-Toxic
Activity [31]: Toxic
IC50 [23]: 57.8 nM
IC50 [1]: 99 nM

Further lines, with some results ahead:

Activity [2]: Active
Activity [3]: Active
Structure (SMILES): CCCn1c(=O)c(-c2ccc(C(=O)NCc3cccnc3)cc2)nc2ccc(NC(=O)CCCCCCCCC(=O)N[C@H](C(=O)N3C[C@H](O)C[C@H]3C(=O)N[C@@H](C)c3ccc(-c4scnc4C)cc3)C(C)(C)C)cc21
IC50 [1]: 14 nM

Drug uptake [7]: Active
Stability [8]: Stable
Tmax [9]: 4 h
Activity [10]: Tde
Cmax [11]: 175 ng/mL
MRT inf [12]: 12.7 h
Activity [13]: Active
half-life [14]: 9.81 h
Activity [15]: Active
Activity [16]: Active
DC50 [19]: 8.4 nM
Activity ([19]; DDE = dose-dependent effect): Dde
AUC(0-inf) [21]: 1110 ng·h/mL
Activity [22]: Active
IC50 [23]: 41.9 nM
Activity [24]: Active
ΔTm [26]: 5.11 °C
Drug uptake [27]: Active
Activity [28]: Active
ΔTm [29]: > 2.62 °C
Activity [3]: Active
Structure (SMILES): CCCn1c(=O)c(-c2ccc(C(=O)NCc3cccnc3)cc2)nc2ccc(NC(=O)CCCCCCCCCCC(=O)N[C@H](C(=O)N3C[C@H](O)C[C@H]3C(=O)N[C@@H](C)c3ccc(-c4scnc4C)cc3)C(C)(C)C)cc21
Activity [5]: Active
Activity [6]: Non-Toxic
Activity [17]: Non-Toxic
IC50 [18]: 100 nM
Activity [20]: Dde
inhibition in vivo at 30 mg/kg [25]: 73%
IC50 [1]: 12.1 nM
inhibition in vivo at 10 mg/kg [30]: 53%

Drug uptake [32]: Active
Drug uptake [33]: Active
Structure (SMILES): CCCn1c(=O)c(-c2ccc(C(=O)NCc3cccnc3)cc2)nc2ccc(NC(=O)CCCCCCCCCCC(=O)N[C@H](C(=O)N3C[C@@H](O)C[C@@H]3C(=O)N[C@@H](C)c3ccc(-c4scnc4C)cc3)C(C)(C)C)cc21
IC50 [1]: 143 nM
